Reference: article PMC5378956, “Inhibition of delta-secretase improves cognitive functions in mouse models of Alzheimer's disease” (Nature Communications, 2017)

What was measured:
tau P301S mice [1] = test system: tau P301S mice
Protocol: Only 2-month-old male mice were used in the present study. Sample size was determined by Power and Precision (Biostat). The animals were randomly allocated to experimental groups. Investigators were blinded to the group allocation during the animal experiments. […] The protocol was reviewed and approved by the Emory Institutional Animal Care and Use Committee. Rabbit anti-tau N368 (1:1,000), and anti-APP585N (1:500) antibody, which specifically recognize the δ-secretase-derived tau and APP fragments respectively, were described previously. […] TUNEL in situ cell death detection kit was from Roche (Indianapolis, IN). […] All chemicals not included above were purchased from Sigma-Aldrich (St. Louis, MO). Recombinant δ-secretase was obtained from Sino Biological (Beijing, China), recombinant cathepsin-S was obtained from Athens Research and Technology (Athens, GA), recombinant caspase-3 and caspase-8 were obtained from Millipore (Billerica, MA).
Synaptic density was determined by electron microscopy as described previously. After deep anaesthesia, mice were perfused transcardially with 2% glutaraldehyde and 3% paraformaldehyde in PBS. Hippocampal slices were post-fixed in cold 1% OsO4 for 1 h. Samples were prepared and examined using standard procedures. Ultrathin sections (90 nm) were stained with uranyl acetate and lead acetate and viewed at 100 kV in a JEOL 200CX electron microscope. Four mice were examined in each group. Synapses were identified by the presence of synaptic vesicles and post synaptic densities.
Electrophysiological analysis was carried out as described previously. […] The hippocampi were cut into 400-μm thick transverse slices with a vibratome. A 0.1 MΩ tungsten monopolar electrode was used to stimulate the Schaffer collaterals. The field excitatory post synaptic potentials (fEPSPs) were recorded in CA1 stratum radiatum by a glass microelectrode filled with a-CSF with resistance of 3–4 MΩ. The stimulation output (Master-8; AMPI, Jerusalem) was controlled by the trigger function of an EPC9 amplifier (HEKA Elektronik, Lambrecht, Germany). fEPSPs were recorded under current-clamp mode. Data were filtered at 3 kHz and digitized at sampling rates of 20 kHz using Pulse software (HEKA Elektronik). The stimulus intensity (0.1 ms duration, 10–30 μA) was set to evoke 40% of the maximum f-EPSP and the test pulse was applied at a rate of 0.033 Hz. LTP of fEPSPs was induced by three theta-burst-stimulation (TBS; 4 pulses at 100 Hz, repeated three times with a 200-ms interval). Paired-pulse facilitation (PPF) was examined by applying pairs of pulses, which were separated by 20–500 ms intervals. The magnitudes of LTP are expressed as the mean percentage of baseline fEPSP initial slope.
The mice were trained in a round, water-filled tub (52′ diameter) in an environment rich with extra maze cues. An invisible escape platform was located in a fixed spatial location 1 cm below the water surface independent of a subject's start position on a particular trial. In this manner, subjects needed to utilize extra maze cues to determine the platform's location. At the beginning of each trial, the mouse was placed in the water maze with their paws touching the wall from 1 of 4 different starting positions (N, S, E, W). […] On reaching the invisible escape platform, subjects were left on it for an additional 5 s to allow for survey of the spatial cues in the environment to guide future navigation to the platform. After each trial, subjects were dried and kept in a dry plastic holding cage filled with paper towels to allow the subjects to dry off. […] The percentage of time that was spent in the quadrant, which previously contained the escape platform during task acquisition, was measured over 60 s. All trials were analysed for latency, swim path length and swim speed by means of MazeScan (Clever Sys, Inc.).
The solution was changed each day.

tau P301S mice [2] = experiment: Chronic toxicity after 3 months oral gavage; format: in vivo, mouse
Text: […]. […] […].

5XFAD mice = details: 5 or 10 mg kg-1 oral; 1, 2, 4 h
[3] = Serum and brain level after chronic oral dosing; details: tau P301S, mouse, in vivo, oral 10 mg kg-1d-1, 3 months, 1 hour after last dose
[4] = Redox potential, horseradish peroxidase-phenol red assay (H2O2 production)

Nc1ccc(N2CCOCC2)c2nonc12 [compound 11, 7-(morpholin-4-yl)-2,1,3-benzoxadiazol-4-amine]
phosphorylation, aggregation and oligomerization of tau (tau P301S mice [1]; 10 mg kg−1 d−1 oral, 3 months): attenuated
cleavage of mouse and human tau after N368 (tau P301S mice [1]; 10 mg kg−1 d−1 oral, 3 months, Western blot): decreased the cleavage
Morris water maze latency to platform (tau P301S mice [1]; five acquisition days): decreased latency to platform
percentage of AT8- and AT100-positive neurons (tau P301S mice [1]; hippocampus and cortex): decreased
percentage of neurons positive of tau N368 (tau P301S mice [1]; hippocampus and cortex, immunohistochemistry): decreased
LTP amplitude (tau P301S mice [1]; mouse, in vivo): significantly elevated the LTP amplitude
behavioural deficits in probe trial (time in target quadrant) (tau P301S mice [1]; mouse, in vivo): ameliorated
dendritic spine density (Golgi stain) (tau P301S mice [1]; mouse, in vivo): increased the density of spines
swim speed (tau P301S mice [1]; mouse, in vivo): not affected
concentrations of IL-1β and TNFα (tau P301S mice [1]; tau P301S mice): reduced the concentrations of inflammatory cytokines IL-1β and TNFα
activity of δ-secretase in the brain (tau P301S mice [1]; wild-type and tau P301S mice, 10 mg kg−1 d−1 oral, 3 months): significantly inhibited
complete blood count, renal and liver function tests overall (tau P301S mice [2]; 10 mg kg−1 d−1, 3 months): all parameters were comparable with the vehicle-treated mice
hematoxylin and eosin staining of major organs (tau P301S mice [2]; 10 mg kg−1 d−1, 3 months): no major differences between vehicle-treated and drug-treated animals
systemic toxicity (tau P301S mice [2]; 10 mg kg−1 d−1, 3 months): does not exhibit systemic toxicity
weight of major organs (heart, liver, spleen, brain, kidney) (tau P301S mice [2]; 10 mg kg−1 d−1, 3 months): not changed
body weight (tau P301S mice [2]; 10 mg kg−1 d−1 oral gavage, 3 months): no significant change in body weight
ALB (tau P301S mice [2]; 10 mg kg−1 d−1 oral, 3 months): 3.57 ± 0.06 g/dL
ALP (tau P301S mice [2]; 10 mg kg−1 d−1 oral, 3 months): 35.25 ± 28.48 U L-1
ALT (tau P301S mice [2]; 10 mg kg−1 d−1 oral, 3 months): 64.25 ± 34.60 U L-1
BUN (tau P301S mice [2]; 10 mg kg−1 d−1 oral, 3 months): 26.75 ± 3.30 mg/dL
Hemoglobin (tau P301S mice [2]; 10 mg kg−1 d−1 oral, 3 months): 12.7 ± 0.94 g/dL
MCH (tau P301S mice [2]; 10 mg kg−1 d−1 oral, 3 months): 17.53 ± 3.42 pg
MCHC (tau P301S mice [2]; 10 mg kg−1 d−1 oral, 3 months): 40.8 ± 5.07%
Red blood cell (tau P301S mice [2]; 10 mg kg−1 d−1 oral, 3 months): 7.38 ± 1.15 X1012 l-1
TBIL (tau P301S mice [2]; 10 mg kg−1 d−1 oral, 3 months): 0.15 ± 0.17 mg/dL
White blood cell (tau P301S mice [2]; 10 mg kg−1 d−1 oral, 3 months): 1.37 ± 0.08 X109 l-1
platelet (tau P301S mice [2]; 10 mg kg−1 d−1 oral, 3 months): 491.26 ± 69.8 X109 l-1
concentrations of Aβ in plasma and brain after single dose (5XFAD mice): time- and dose-dependently decreased
concentration at 1 h ([3]; 10 mg kg-1d-1, Compound #11 in the serum, Sample #1): 184 ng/mL
concentration at 1 h ([3]; 10 mg kg-1d-1, Compound #11 in the serum, Sample #2): 59 ng/mL
concentration at 1 h ([3]; 10 mg kg-1d-1, Concentration in the brain, Sample #1): 206 ng/g
concentration at 1 h ([3]; 10 mg kg-1d-1, Concentration in the brain, Sample #2): 87 ng/g
production of H2O2 (redox potential) [4]: none of them produced H2O2
